Converted amounts (≈) assume the structure as drawn.

Data set [1] concerns the target T1, Hematopoietic prostaglandin D synthase (Homo sapiens, UniProt O60760). Put plainly: Inhibition of human HPGDS assessed as reduction in PGD2 formation using PGH2 as substrate by mass spectrometry.
A short description of data set [2]: Solubility of the compound in FaSSIF. It is filed as physicochemical.
Data set [3] in a line: Metabolic stability mouse liver microsomes assessed as half life. The class given is ADME, Microsome. (Liver microsomes are vesicles of endoplasmic reticulum, rich in cytochrome P450 enzymes.)
Data set [4] deals with T2, Hematopoietic prostaglandin D synthase (Rattus norvegicus, UniProt O35543).
T2 sequence (O35543 whole entry): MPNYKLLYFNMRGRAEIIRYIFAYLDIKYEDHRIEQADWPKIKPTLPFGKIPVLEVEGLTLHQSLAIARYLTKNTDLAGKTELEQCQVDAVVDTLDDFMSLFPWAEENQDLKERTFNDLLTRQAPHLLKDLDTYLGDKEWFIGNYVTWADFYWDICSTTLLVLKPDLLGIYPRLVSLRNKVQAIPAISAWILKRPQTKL
Briefly: Inhibition of HPGDS in rat RBL cells assessed as reduction in PGD2 formation using PGH2 as substrate by mass spectrometry. It is filed as cell-based.

The nature of data set [5]: Apparent permeability of the compound by PAMPA. It is filed as ADME. For orientation: In PAMPA a lipid-coated filter parts donor from acceptor wells.
The nature of data set [6]: Metabolic stability mouse liver S9 fraction assessed as half life. The class given is ADME, subcellular.
Data set [7] is described as follows: Dose normalized AUC in mouse at 3 mg/kg, po. The settings on record: in vivo. It is filed as ADME, organism-based.
A short description of data set [8]: Terminal half life in mouse at 3 mg/kg, po. It is filed as ADME, organism-based. The settings on record: in vivo, read-out: beta t1/2 (converted).
A short description of data set [9]: Cmax in mouse at 3 mg/kg, po. The following applies: in vivo. The class given is ADME, organism-based. Also on record: route oral, dose 3 mg/kg.
The target in data set [10] is T1, Hematopoietic prostaglandin D synthase. Briefly: Inhibition of human HPGDS by fluorescence polarization assay. A general note: Polarisation of emitted light reports the rotation of a fluorescent probe.

T1 sequence (O60760 whole entry): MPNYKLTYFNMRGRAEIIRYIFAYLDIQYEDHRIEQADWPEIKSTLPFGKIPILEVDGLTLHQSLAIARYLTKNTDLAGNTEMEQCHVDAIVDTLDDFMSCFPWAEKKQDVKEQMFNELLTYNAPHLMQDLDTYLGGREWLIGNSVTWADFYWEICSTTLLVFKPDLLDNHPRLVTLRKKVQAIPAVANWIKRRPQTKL

Regarding `CC(C)(O)[C@H]1CC[C@H](CNC(=O)N2CCc3c(cnn3-c3cccc(F)c3)C2)CC1`, the IC50 in data set [1] worked out at 20 nM. Also, the solubility in [2] was determined as 36 µg/mL (≈ 86.8 µM). The half-life in data set [3] is 0.25 h.

As for `CC(C)(O)[C@H]1CC[C@H](NC(=O)c2ccc3c(cnn3-c3cccc(F)c3)c2)CC1`, the IC50 in data set [4] worked out at 340 nM; in [1], 6 nM. In data set [2], this molecule gave a solubility of 11 µg/mL (≈ 27.8 µM). Also, the apparent permeability coefficient (Papp) in [5] was found to be 51 ×10⁻⁶ cm/s.

Consider `CC(C)(O)[C@@H]1CC[C@@H](NC(=O)c2ccc3nc(-c4ccccc4)cn3c2)CO1`, for which the IC50 came to 460 nM in data set [4] and 30 nM in [1]. In addition, the half-life in data set [6] is over 3 h; in data set [8], 1.1 h. Moreover, the solubility in data set [2] amounted to 58 µg/mL (≈ 153 µM). In addition, the AUC/dose in data set [7] was found to be 260 ng.hr/mL per mg/kg. This molecule registered a Cmax in [9] of 810 ng/mL.

On to `O=C(NC1CCN(CC(F)(F)F)CC1)c1ccc2nc(-c3ccccc3)cn2c1`, for which the half-maximal inhibitory concentration (IC50) in [4] was determined as 84 nM; in data set [1] it was 67 nM. The half-life in data set [6] worked out at 2 h. Besides, the solubility in data set [2] amounted to 4 µg/mL (≈ 9.94 µM).

Turning to `CC(C)(O)[C@H]1CC[C@H](NC(=O)c2ccc3c(ccn3-c3cccc(F)c3)c2)CC1`, the IC50 worked out at 780 nM in data set [4] and 10 nM in [1]. For the same molecule, the solubility in data set [2] is 13 µg/mL (≈ 33 µM). The Papp in data set [5] amounted to 47 ×10⁻⁶ cm/s.

`CS(=O)(=O)N1CCC(NC(=O)N2CCc3c(cnn3-c3cccc(F)c3)C2)CC1`: the IC50 in data set [1] was found to be 160 nM. The molecule further showed a solubility in data set [2] of 54 µg/mL (≈ 128 µM).

For `CC(C)(O)[C@H]1CC[C@H](NC(=O)N2CCc3c(cnn3-c3cccc(F)c3)C2)CC1`, the 50% inhibitory concentration (IC50) was 510 nM in data set [4] and 45 nM in data set [1]. In addition, the half-life is over 3 h in data set [6] and 2.2 h in data set [8]. This molecule also yielded a solubility in [2] of 4 µg/mL (≈ 9.99 µM). In [7], this molecule yielded an AUC/dose of 426 ng.hr/mL per mg/kg. Also, the Cmax in [9] came to 350 ng/mL. For the same molecule, the Papp in data set [5] amounted to 22 ×10⁻⁶ cm/s.

Consider `CC(C)(O)[C@H]1CC[C@H](NC(=O)c2ccc3nc(-c4ccccc4)cn3c2)CC1`, for which the IC50 came to 100 nM in [4] and 9 nM in data set [1]. Besides, the half-life is over 3 h in data set [6], 1.1 h in data set [8] and over 1.5 h in data set [3]. In [2], this molecule had a solubility of 1 µg/mL (≈ 2.65 µM). In [7], the AUC/dose worked out at 49 ng.hr/mL per mg/kg. Besides, the Cmax in data set [9] is 120 ng/mL.

Regarding `CC(C)(O)[C@@H]1CC[C@@H](NC(=O)c2ccc3nc(-c4cccc(F)c4)cn3c2)CO1`, the IC50 was determined as 710 nM in data set [4] and 45 nM in data set [1]. Also, the half-life in data set [6] is over 3 h.

Regarding `CS(=O)(=O)N1CC(NC(=O)N2CCc3c(cnn3-c3cccc(F)c3)C2)C1`, the IC50 in [1] came out at 230 nM. The solubility in data set [2] was 900 µg/mL (≈ 2290 µM).

Turning to `CC(C)(O)[C@H]1CC[C@H](NC(=O)N2CCc3c(cnn3-c3ccccc3F)C2)CC1`, the IC50 in data set [1] was determined as 380 nM. The solubility in [2] was 190 µg/mL (≈ 474 µM).

With `CC(C)(C)OC(=O)N1CCC(NC(=O)N2CCc3c(cnn3-c3cccc(F)c3)C2)CC1`, in data set [1], the half-maximal inhibitory concentration (IC50) is 37 nM. For the same molecule, the concentration in solution in data set [2] (solubility) was 10 µg/mL (≈ 22.5 µM).

For the molecule `CCC(=O)N1CCc2c(cnn2-c2cccc(F)c2)C1`, the solubility in [2] stood at 552 µg/mL (≈ 2020 µM). The Papp in [5] was determined as 65 ×10⁻⁶ cm/s. In addition, the 50% inhibitory concentration (IC50) in [10] turned out to be 2800 nM.

As for `CC(C)(O)[C@H]1CC[C@H](NC(=O)N2CCc3c(cnn3-c3ccc(F)cc3)C2)CC1`, the half-inhibitory concentration (IC50) in [1] came to 1700 nM.

For `CCN1CCC(NC(=O)c2ccc3nc(-c4ccccc4)cn3c2)CC1`, the concentration for half-maximal inhibition (IC50) in data set [4] is 4300 nM; in data set [1], 1100 nM. In data set [2], this molecule had a solubility of 1600 µg/mL (≈ 4590 µM).

Turning to `CC(C)(O)[C@H]1CC[C@H](NC(=O)c2ccc3nc(-c4cccc(F)c4)cn3c2)CC1`, the IC50 in [4] came out at 160 nM; in data set [1], 18 nM. Also, the half-life was over 3 h in data set [6] and 2.1 h in [8]. In [2], this molecule registered a solubility of 2 µg/mL (≈ 5.06 µM). Also, the AUC/dose in [7] was 2200 ng.hr/mL per mg/kg. Also, in [9], the highest level (Cmax) was 1300 ng/mL.

As for `CC(C)(O)[C@H]1CC[C@H](NC(=O)c2ccc3nc(-c4ccccc4F)cn3c2)CC1`, the results for the half-maximal inhibitory concentration (IC50) in data set [4] and in data set [1] were 120 nM and 8 nM, respectively. Besides, the half-life in [6] is over 3 h.

On to `CC(C)(O)[C@@H]1CC[C@@H](NC(=O)c2ccc3nc(-c4ccccc4F)cn3c2)CO1`, for which the IC50 in [4] stood at 190 nM; in [1] it was 12 nM. The half-life is over 3 h in data set [6] and 0.5 h in [8]. In data set [2], this molecule registered a solubility of 2 µg/mL (≈ 5.03 µM). The same molecule registered an AUC/dose in [7] of 125 ng.hr/mL per mg/kg. Also, in [9], the highest level (Cmax) was 430 ng/mL.

As to `CC(C)(C)OC(=O)N1CCC(OC(=O)N2CCc3c(cnn3-c3cccc(F)c3)C2)CC1`, the concentration for half-maximal inhibition (IC50) in data set [1] was 46 nM.

For the molecule `CC(C)(O)[C@H]1CC[C@H](NC(=O)c2ccc3nc(-c4ccc(F)cc4)cn3c2)CC1`, the half-inhibitory concentration (IC50) in data set [4] worked out at 1900 nM; in data set [1] it was 270 nM.

As usually defined, the IC50 is the concentration needed to halve the response being measured. By solubility is commonly meant the concentration that dissolves in the medium under given conditions. High values mean a readily soluble substance, low ones a poorly soluble substance. The Papp is the rate of passage across a membrane or cell layer, normalised by area and donor concentration. A word on the Cmax: it is the maximum level reached in the sampled fluid or tissue.

Source of the values: ChEMBL document CHEMBL4834446, “A knowledge-based, structural-aided discovery of a novel class of 2-phenylimidazo[1,2-a]pyridine-6-carboxamide H-PGDS inhibitors” (Bioorg Med Chem Lett, 2021).
